Ten molecules from patent US6572865B1, “Mycobacterium tuberculosis DNA sequences encoding immunostimulatory peptides and methods for using same” (priority 1995, dated 2003) can be followed below.

The subject of test [1] is T-cells from tuberculin-positive people. Type of test: cell-based, human.
The subject of a further test is immune T-cells. The class given is cell-based, mice. The following applies: Table 2; background subtracted; up to ten μg fusion peptide.
Where [2] appears, read: 5×10^5 mononuclear cells, up to 1 μg/mL peptide or up to 50 ng/mL PhoA fusion protein.
Where [3] appears, read: up to 1 μg/mL peptide or up to 50 ng/mL PhoA fusion protein, background 103.3.

Like-named read-outs stand apart in the source and are kept apart here.

Regarding “EYSRFVGDVFGAPLAME [CD-2/1/96/10, synthetic peptide from AciI#2-827]”, the “Concentration of INF-γ” value in test [1] (setting [2]) was 134.0 pg/mL. Further, the “Concentration of INF-γ minus background” value in test [1] (setting [3]) is recorded as 30.7 pg/mL.

Take “GKTYDAYFTDAGGITPG [HPI1-3/2, synthetic peptide from HinP#1-3]”: in test [1] (setting [2]), the “Concentration of INF-γ” value was 136.3 pg/mL. Moreover, the “Concentration of INF-γ minus background” value in test [1] (setting [3]) is given as 23.0 pg/mL.

In the case of “GRAELSSIVVLLTNNTA [CD-2/1/96/14, synthetic peptide from AciI#2-827]”, in test [1] (setting [2]), the “Concentration of INF-γ” value is listed as 310.2 pg/mL. In test [1] (setting [3]), the “Concentration of INF-γ minus background” value amounted to 206.9 pg/mL.

For “PhoA control: PhoA protein employed as a negative control [reference compound]”, in test [1] (control at 10 μg/mL), the “Concentration of INF-γ” value turned out to be 26.7 pg/mL and the “Concentration of INF-γ minus background” value is 0 pg/mL.

For “SRFVGDVFGAPLAMESL [CD-2/1/96/11, synthetic peptide from AciI#2-827]”, the “Concentration of INF-γ” value in test [1] (setting [2]) is on record as 141.6 pg/mL. For the same molecule, the “Concentration of INF-γ minus background” value in test [1] (setting [3]) is recorded as 38.3 pg/mL.

On to “VTDNPAWYRLTKFFGKL [CD-2/1/96/1, synthetic peptide from AciI#2-827]”, for which the “Concentration of INF-γ” value in test [1] (setting [2]) was 256.6 pg/mL. Further, the “Concentration of INF-γ minus background” value in test [1] (setting [3]) turned out to be 153.3 pg/mL.

Regarding “WSEYSRFVGDVFGAPLA [CD-2/1/96/9, synthetic peptide from AciI#2-827]”, in test [1] (setting [2]), the “Concentration of INF-γ” value was 187.6 pg/mL. The “Concentration of INF-γ minus background” value in test [1] (setting [3]) was 84.3 pg/mL.

For the molecule “YDAYFTDAGGITPGNSV [HPI1-3/3, synthetic peptide from HinP#1-3]”, in test [1] (setting [2]), the “Concentration of INF-γ” value is 264.2 pg/mL. Also, the “Concentration of INF-γ minus background” value in test [1] (setting [3]) amounted to 160.9 pg/mL.

B1: AciI#3-243: AP-fusion clone; SEQ ID NO: 112; MTCY50.02 (protein)
chain: AGGCGACGGTTGGCACCACCACGAGTGAGTCAGGCAGGAGCCCCGCCACGTTGCGGACGGCGCGAATCTTCGCCTGTGGCTCACCGACTTTCCGCCCAACTTCAACGATCTTGCACATGGACGGCAAGAACGCCGAGGTCGCG
notes: AP-fusion clone; MTCY50.02
For the molecule B1, in the test on immune T-cells, the “INF: pg/mL of INF-γ produced using fusion to stimulate immune T-cells” value is 2,857 pg/mL.

B2: AciI#2-874: AP-fusion clone; SEQ ID NO: 73; MTCY190.20 (protein)
chain: VMPSSIGLVVGSMLWRQINRLFGVRGLCWAAHCSTPLCAAVHGGRVVWAVGSRLGVLHGVPAGYGGRSNGGRRIDIVDQRPRAR
notes: AP-fusion clone; MTCY190.20
With B2, in the test on immune T-cells, the “INF: pg/mL of INF-γ produced using fusion to stimulate immune T-cells” value is reported as 2,171 pg/mL.
